# Data reported in PubChem BioAssay (NCI).
#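 1) Cells in 96-well plates. 2) Compound, 48 h, 5 concentrations. 3) Linear interpolation between surrounding doses. 4) Unreached endpoint = highest concentration. At the TGI there is no net growth.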
# Columns and labels:
# Test in all cases: growth of human tumour cells (NCI), 48 h
# UO-31 renal = test system: UO-31 renal
# DMS 114 small cell lung = test system: DMS 114 small cell lung
# SK-MEL-28 melanoma = test system: SK-MEL-28 melanoma
# MALME-3M melanoma = test system: MALME-3M melanoma
# RPMI-8226 leukemia = test system: RPMI-8226 leukemia
# SK-MEL-2 melanoma = test system: SK-MEL-2 melanoma
# HOP-18 NSCLC = test system: HOP-18 NSCLC
# 786-0 renal = test system: 786-0 renal
# HCT-15 colon = test system: HCT-15 colon
# A498 renal = test system: A498 renal
# HOP-92 NSCLC = test system: HOP-92 NSCLC
# M19-MEL melanoma = test system: M19-MEL melanoma
# DMS 273 small cell lung = test system: DMS 273 small cell lung
# EKVX NSCLC = test system: EKVX NSCLC
# UACC-257 melanoma = test system: UACC-257 melanoma
# OVCAR-4 ovarian = test system: OVCAR-4 ovarian
# OVCAR-8 ovarian = test system: OVCAR-8 ovarian
# NCI-H226 lung = test system: NCI-H226 lung
# KM20L2 colon = test system: KM20L2 colon
# A549 NSCLC = test system: A549 NSCLC
# HCC-2998 colon = test system: HCC-2998 colon
# SF-295 CNS = test system: SF-295 CNS
# UACC-62 melanoma = test system: UACC-62 melanoma
# U251 CNS = test system: U251 CNS
# DLD-1 colon = test system: DLD-1 colon
# SF-539 CNS = test system: SF-539 CNS
# CAKI-1 renal = test system: CAKI-1 renal
# SK-OV-3 ovarian = test system: SK-OV-3 ovarian
# IGROV1 ovarian = test system: IGROV1 ovarian
# SN12C renal = test system: SN12C renal
# OVCAR-3 ovarian = test system: OVCAR-3 ovarian
# KM12 colon = test system: KM12 colon
# OVCAR-5 ovarian = test system: OVCAR-5 ovarian
# SW-620 colon = test system: SW-620 colon
# LXFL 529 NSCLC = test system: LXFL 529 NSCLC
# HOP-62 NSCLC = test system: HOP-62 NSCLC
# HT29 colon = test system: HT29 colon
# NCI-H522 lung = test system: NCI-H522 lung
# COLO 205 colon = test system: COLO 205 colon
# SNB-19 CNS = test system: SNB-19 CNS
# SNB-75 CNS = test system: SNB-75 CNS
# NCI-H23 lung = test system: NCI-H23 lung
# M14 melanoma = test system: M14 melanoma
# SNB-78 CNS = test system: SNB-78 CNS
# NCI-H460 lung = test system: NCI-H460 lung
# ACHN renal = test system: ACHN renal
# SF-268 CNS = test system: SF-268 CNS
# RXF 393 renal = test system: RXF 393 renal
# HCT-116 colon = test system: HCT-116 colon
# SR leukemia = test system: SR leukemia
# HL-60(TB) leukemia = test system: HL-60(TB) leukemia
# TK-10 renal = test system: TK-10 renal
# MOLT-4 leukemia = test system: MOLT-4 leukemia
# SK-MEL-5 melanoma = test system: SK-MEL-5 melanoma
# CCRF-CEM leukemia = test system: CCRF-CEM leukemia
# K-562 leukemia = test system: K-562 leukemia
# LOX IMVI melanoma = test system: LOX IMVI melanoma
smiles,measurement,setting,value
O=C1C=C(Nc2ccccc2C(=O)c2ccccc2)c2ccccc2C1=O,TGI,UO-31 renal,> 100 µM
same,TGI,DMS 114 small cell lung,> 100 µM
same,TGI,SK-MEL-28 melanoma,> 100 µM
same,TGI,MALME-3M melanoma,> 100 µM
same,TGI,RPMI-8226 leukemia,> 100 µM
same,TGI,SK-MEL-2 melanoma,> 100 µM
same,TGI,HOP-18 NSCLC,> 100 µM
same,TGI,786-0 renal,> 100 µM
same,TGI,HCT-15 colon,> 100 µM
same,TGI,A498 renal,> 100 µM
same,TGI,HOP-92 NSCLC,> 100 µM
same,TGI,M19-MEL melanoma,33.2 µM
same,TGI,DMS 273 small cell lung,> 100 µM
same,TGI,EKVX NSCLC,> 100 µM
same,TGI,UACC-257 melanoma,27.9 µM
same,TGI,OVCAR-4 ovarian,> 100 µM
same,TGI,OVCAR-8 ovarian,> 100 µM
same,TGI,NCI-H226 lung,> 100 µM
same,TGI,KM20L2 colon,> 100 µM
same,TGI,A549 NSCLC,> 100 µM
same,TGI,HCC-2998 colon,> 100 µM
same,TGI,SF-295 CNS,> 100 µM
same,TGI,UACC-62 melanoma,> 100 µM
same,TGI,U251 CNS,> 100 µM
same,TGI,DLD-1 colon,> 100 µM
same,TGI,SF-539 CNS,> 100 µM
same,TGI,CAKI-1 renal,> 100 µM
same,TGI,SK-OV-3 ovarian,> 100 µM
same,TGI,IGROV1 ovarian,> 100 µM
same,TGI,SN12C renal,> 100 µM
same,TGI,OVCAR-3 ovarian,> 100 µM
same,TGI,KM12 colon,> 100 µM
same,TGI,OVCAR-5 ovarian,> 100 µM
same,TGI,SW-620 colon,> 100 µM
same,TGI,LXFL 529 NSCLC,> 100 µM
same,TGI,HOP-62 NSCLC,> 100 µM
same,TGI,HT29 colon,> 100 µM
same,TGI,NCI-H522 lung,55.9 µM
same,TGI,COLO 205 colon,> 100 µM
same,TGI,SNB-19 CNS,> 100 µM
same,TGI,SNB-75 CNS,> 100 µM
same,TGI,NCI-H23 lung,> 100 µM
same,TGI,M14 melanoma,> 100 µM
same,TGI,SNB-78 CNS,> 100 µM
same,TGI,NCI-H460 lung,> 100 µM
same,TGI,ACHN renal,> 100 µM
same,TGI,SF-268 CNS,> 100 µM
same,TGI,RXF 393 renal,> 100 µM
same,TGI,HCT-116 colon,> 100 µM
same,TGI,SR leukemia,> 100 µM
N#CC(C#N)=c1ccc(=C2N3CCCC3CN2C23CC4CC(CC(C4)C2)C3)cc1 (centres undefined),TGI,UO-31 renal,> 100 µM
same,TGI,DMS 114 small cell lung,> 100 µM
same,TGI,SK-MEL-28 melanoma,> 100 µM
same,TGI,MALME-3M melanoma,> 100 µM
same,TGI,RPMI-8226 leukemia,> 100 µM
same,TGI,SK-MEL-2 melanoma,> 100 µM
same,TGI,HOP-18 NSCLC,> 100 µM
same,TGI,786-0 renal,> 100 µM
same,TGI,HCT-15 colon,> 100 µM
same,TGI,HL-60(TB) leukemia,> 100 µM
same,TGI,HOP-92 NSCLC,> 100 µM
same,TGI,TK-10 renal,> 100 µM
same,TGI,M19-MEL melanoma,> 100 µM
same,TGI,DMS 273 small cell lung,> 100 µM
same,TGI,EKVX NSCLC,> 100 µM
same,TGI,UACC-257 melanoma,> 100 µM
same,TGI,OVCAR-8 ovarian,> 100 µM
same,TGI,NCI-H226 lung,> 100 µM
same,TGI,KM20L2 colon,> 100 µM
same,TGI,A549 NSCLC,> 100 µM
same,TGI,HCC-2998 colon,> 100 µM
same,TGI,MOLT-4 leukemia,> 100 µM
same,TGI,SF-295 CNS,> 100 µM
same,TGI,UACC-62 melanoma,> 100 µM
same,TGI,SK-MEL-5 melanoma,> 100 µM
same,TGI,U251 CNS,> 100 µM
same,TGI,DLD-1 colon,> 100 µM
same,TGI,SF-539 CNS,> 100 µM
same,TGI,SK-OV-3 ovarian,> 100 µM
same,TGI,IGROV1 ovarian,> 100 µM
same,TGI,SN12C renal,> 100 µM
same,TGI,OVCAR-3 ovarian,> 100 µM
same,TGI,KM12 colon,> 100 µM
same,TGI,OVCAR-5 ovarian,> 100 µM
same,TGI,SW-620 colon,> 100 µM
same,TGI,LXFL 529 NSCLC,> 100 µM
same,TGI,HOP-62 NSCLC,> 100 µM
same,TGI,HT29 colon,> 100 µM
same,TGI,NCI-H522 lung,> 100 µM
same,TGI,CCRF-CEM leukemia,> 100 µM
same,TGI,COLO 205 colon,> 100 µM
same,TGI,SNB-19 CNS,> 100 µM
same,TGI,SNB-75 CNS,78.8 µM
same,TGI,NCI-H23 lung,> 100 µM
same,TGI,M14 melanoma,> 100 µM
same,TGI,SNB-78 CNS,> 100 µM
same,TGI,NCI-H460 lung,> 100 µM
same,TGI,K-562 leukemia,> 100 µM
same,TGI,ACHN renal,> 100 µM
same,TGI,LOX IMVI melanoma,> 100 µM
same,TGI,SF-268 CNS,> 100 µM
same,TGI,RXF 393 renal,> 100 µM
same,TGI,HCT-116 colon,> 100 µM
same,TGI,SR leukemia,> 100 µM
